Columns and labels:
Assay in all cases: Kinase Hotspot radiolabel assay
Assay type in all cases: biochemical
Conditions in all cases: read-out: % Residual Activity
FES/FPS = molecular target: T1, FES/FPS (Homo sapiens, UniProt P07332)
T1 construct: purchased Reaction Biology Corporation (Kinase HotSpot)
Experimental: (§1) Kinase assay. The ADP Glo^TM kinase assay (Promega, Madison, WI, USA) was used to assess the inhibition by CDDD11-8 of CDKs 1, 2, 4, 6, 7, and 9, as well as the mutant isoforms of FLT3. The assays were performed in accord with the manufacturer’s protocol (Promega) as described previously. Briefly, serial three-fold dilutions of CDDD11-8 were prepared in 100% DMSO from a 2 mM stock solution, followed by 1:40 dilution into Milli-Q water. Subsequently, 1 µL of each sample was incubated with 4 µL of kinase mixture containing a particular CDK enzyme and its substrate, standard kinase buffer [3 mM MgCl2, 50 mM HEPES-NaOH pH 7.5, 3 mM MnCl2, 3 µM Na-orthovanadate, 1 mM dithiothreitol (DTT)], kinase dilution buffer (containing 0.25 mg/mL PEG20,000, 50 mM HEPES-NaOH pH 7.5, 1 mM DTT), and ATP at 37 °C for 30 to 40 min. The final reaction mixture contained 0.5% DMSO in all samples, and the applied kinase concentrations were 1, 1, 10, 40, 20, and 50 nM for CDK1, 2, 4, 6, 7, and 9, respectively. The reaction was stopped by adding ADP-Glo reagent and the mixture was incubated further in the dark at room temperature for 40 min. As a final step, kinase detection reagent was added to each mixture and incubated at room temperature for 30 to 60 min. Luminescence was read using an EnVision® multilabel plate reader (PerkinElmer, Beaconsfield, UK), and half-maximum inhibitory concentrations (IC50) were calculated using a non-linear regression model with a variable slope, plotting log (inhibitor concentration) vs. response using the following formula: Ar%=Bottom+Top−Bottom/1+Inhibitor Concentration/IC50^HillSlope where the relative activity Ar (%) is the signal relative to the controls, IC50 is the half maximum concentration, Hillslope is the steepness of the dose-response curve, Top and Bottom are plateaus reflecting the maximum and minimum in responses on the Y-axis (GraphPad Prism version 7, San Diego, CA, USA). Ki values were calculated from the IC50 using the Cheng−Prusoff equation [32]. Extensive specificity assessment was carried out by Reaction Biology Corporation (Malvern, PA, USA) with 369 kinases using 1 µM CDDD11-8 concentration in a Kinase Hotspot radiolabel assay (for experimental details, please see (Reaction Biology https://www.reactionbiology.com/). Subsequently, Ki values were determined for kinases with greater than 90% inhibition.

MEKK3 = molecular target: T2, MEKK3 (Homo sapiens, UniProt Q99759)
T2 construct: purchased Reaction Biology Corporation (Kinase HotSpot)
Experimental: as §1

c-MET = molecular target: T3, c-MET (Homo sapiens, UniProt P08581)
T3 construct: purchased Reaction Biology Corporation (Kinase HotSpot)
T3 sequence (P08581 25-1390): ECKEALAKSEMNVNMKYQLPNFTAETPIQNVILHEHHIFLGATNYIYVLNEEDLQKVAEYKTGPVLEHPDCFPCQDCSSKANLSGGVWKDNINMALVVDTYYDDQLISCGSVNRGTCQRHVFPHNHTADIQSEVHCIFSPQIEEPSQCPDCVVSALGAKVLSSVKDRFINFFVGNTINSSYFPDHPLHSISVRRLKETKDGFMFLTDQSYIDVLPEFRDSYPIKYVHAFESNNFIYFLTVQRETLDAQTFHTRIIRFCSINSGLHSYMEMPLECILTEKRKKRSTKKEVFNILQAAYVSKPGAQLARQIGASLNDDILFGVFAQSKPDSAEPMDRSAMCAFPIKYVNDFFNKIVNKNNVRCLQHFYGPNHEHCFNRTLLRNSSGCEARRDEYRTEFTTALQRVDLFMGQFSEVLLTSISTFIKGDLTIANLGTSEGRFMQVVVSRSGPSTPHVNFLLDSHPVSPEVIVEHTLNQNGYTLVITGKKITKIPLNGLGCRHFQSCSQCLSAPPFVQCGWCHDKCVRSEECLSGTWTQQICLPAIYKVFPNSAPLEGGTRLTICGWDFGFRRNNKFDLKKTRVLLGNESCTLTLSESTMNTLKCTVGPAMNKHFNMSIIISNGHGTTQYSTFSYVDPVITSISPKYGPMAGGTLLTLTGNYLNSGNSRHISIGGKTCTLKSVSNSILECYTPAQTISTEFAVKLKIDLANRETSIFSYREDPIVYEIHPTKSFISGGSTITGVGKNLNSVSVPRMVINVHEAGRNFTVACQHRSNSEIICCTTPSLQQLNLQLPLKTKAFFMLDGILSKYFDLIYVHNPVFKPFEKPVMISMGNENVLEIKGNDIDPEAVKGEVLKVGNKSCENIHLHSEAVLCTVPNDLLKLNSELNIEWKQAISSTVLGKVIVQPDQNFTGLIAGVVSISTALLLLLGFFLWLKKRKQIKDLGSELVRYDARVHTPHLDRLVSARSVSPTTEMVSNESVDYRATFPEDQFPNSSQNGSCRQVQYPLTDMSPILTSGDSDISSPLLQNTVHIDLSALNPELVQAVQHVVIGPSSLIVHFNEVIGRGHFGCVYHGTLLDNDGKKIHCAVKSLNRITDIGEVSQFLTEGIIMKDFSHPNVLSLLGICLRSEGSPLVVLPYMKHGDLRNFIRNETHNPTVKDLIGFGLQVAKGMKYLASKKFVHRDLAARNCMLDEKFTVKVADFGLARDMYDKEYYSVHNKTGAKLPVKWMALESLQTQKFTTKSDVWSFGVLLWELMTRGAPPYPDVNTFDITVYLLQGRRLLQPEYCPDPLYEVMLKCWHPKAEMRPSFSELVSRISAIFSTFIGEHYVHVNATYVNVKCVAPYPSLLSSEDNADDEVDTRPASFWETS
Experimental: as §1

SGK3/SGKL = molecular target: T4, SGK3/SGKL (Homo sapiens, UniProt Q96BR1)
T4 construct: purchased Reaction Biology Corporation (Kinase HotSpot)
Experimental: as §1

IKKe/IKBKE = molecular target: T5, IKKe/IKBKE (Homo sapiens, UniProt Q14164)
T5 construct: purchased Reaction Biology Corporation (Kinase HotSpot)
Experimental: as §1

STK33 = molecular target: T6, STK33 (Homo sapiens, UniProt Q9BYT3)
T6 construct: purchased Reaction Biology Corporation (Kinase HotSpot)
Experimental: as §1

CLK3 = molecular target: T7, CLK3 (Homo sapiens, UniProt P49761)
T7 construct: purchased Reaction Biology Corporation (Kinase HotSpot)
Experimental: as §1

FYN = molecular target: T8, FYN (Homo sapiens, UniProt P06241)
T8 construct: purchased Reaction Biology Corporation (Kinase HotSpot)
Experimental: as §1

HIPK3 = molecular target: T9, HIPK3 (Homo sapiens, UniProt Q9H422)
T9 construct: purchased Reaction Biology Corporation (Kinase HotSpot)
Experimental: as §1

BMX/ETK = molecular target: T10, BMX/ETK (Homo sapiens, UniProt P51813)
T10 construct: purchased Reaction Biology Corporation (Kinase HotSpot)
Experimental: as §1

SRPK2 = molecular target: T11, SRPK2 (Homo sapiens, UniProt P78362)
T11 construct: purchased Reaction Biology Corporation (Kinase HotSpot)
Experimental: as §1

HPK1/MAP4K1 = molecular target: T12, HPK1/MAP4K1 (Homo sapiens, UniProt Q92918)
T12 construct: purchased Reaction Biology Corporation (Kinase HotSpot)
Experimental: as §1

PBK/TOPK = molecular target: T13, PBK/TOPK (Homo sapiens, UniProt Q96KB5)
T13 construct: purchased Reaction Biology Corporation (Kinase HotSpot)
Experimental: as §1

CDC7/DBF4 = molecular target: T14, CDC7/DBF4 (Homo sapiens, UniProt O00311)
T14 construct: purchased Reaction Biology Corporation (Kinase HotSpot)
Experimental: as §1

SSTK/TSSK6 = molecular target: T15, SSTK/TSSK6 (Homo sapiens, UniProt Q9BXA6)
T15 construct: purchased Reaction Biology Corporation (Kinase HotSpot)
T15 sequence (Q9BXA6 whole entry): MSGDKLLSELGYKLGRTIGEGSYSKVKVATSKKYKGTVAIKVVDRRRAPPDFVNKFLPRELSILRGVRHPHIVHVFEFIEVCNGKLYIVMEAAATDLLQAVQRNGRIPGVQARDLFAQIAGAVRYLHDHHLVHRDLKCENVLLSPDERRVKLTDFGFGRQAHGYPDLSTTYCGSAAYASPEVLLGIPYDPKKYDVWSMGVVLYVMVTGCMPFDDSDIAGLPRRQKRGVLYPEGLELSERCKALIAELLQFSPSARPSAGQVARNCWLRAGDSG
Experimental: as §1

FGFR1 = molecular target: T16, FGFR1 (Homo sapiens, UniProt P11362)
T16 construct: purchased Reaction Biology Corporation (Kinase HotSpot)
Experimental: as §1

MYLK3 = molecular target: T17, MYLK3 (Homo sapiens, UniProt Q32MK0)
T17 construct: purchased Reaction Biology Corporation (Kinase HotSpot)
Experimental: as §1

ALK5/TGFBR1 = molecular target: T18, ALK5/TGFBR1 (Homo sapiens, UniProt P36897)
T18 construct: purchased Reaction Biology Corporation (Kinase HotSpot)
T18 sequence (P36897 34-503): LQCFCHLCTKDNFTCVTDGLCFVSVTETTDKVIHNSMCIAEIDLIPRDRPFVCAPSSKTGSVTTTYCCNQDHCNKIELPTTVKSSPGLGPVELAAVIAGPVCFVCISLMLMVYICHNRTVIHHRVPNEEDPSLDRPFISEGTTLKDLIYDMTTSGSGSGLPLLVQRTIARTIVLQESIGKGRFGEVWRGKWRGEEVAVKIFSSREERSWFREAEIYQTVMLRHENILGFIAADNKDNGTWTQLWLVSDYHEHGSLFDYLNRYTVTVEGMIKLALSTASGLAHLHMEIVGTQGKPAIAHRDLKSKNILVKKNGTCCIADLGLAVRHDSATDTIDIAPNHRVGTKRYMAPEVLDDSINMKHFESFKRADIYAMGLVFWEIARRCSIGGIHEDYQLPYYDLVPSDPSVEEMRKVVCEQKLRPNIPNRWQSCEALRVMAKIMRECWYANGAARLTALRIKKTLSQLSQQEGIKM
Experimental: as §1

EPHB1 = molecular target: T19, EPHB1 (Homo sapiens, UniProt P54762)
T19 construct: purchased Reaction Biology Corporation (Kinase HotSpot)
Experimental: as §1

ERBB2/HER2 = molecular target: T20, ERBB2/HER2 (Homo sapiens, UniProt P04626)
T20 construct: purchased Reaction Biology Corporation (Kinase HotSpot)
Experimental: as §1

TSSK3/STK22C = molecular target: T21, TSSK3/STK22C (Homo sapiens, UniProt Q96PN8)
T21 construct: purchased Reaction Biology Corporation (Kinase HotSpot)
T21 sequence (Q96PN8 whole entry): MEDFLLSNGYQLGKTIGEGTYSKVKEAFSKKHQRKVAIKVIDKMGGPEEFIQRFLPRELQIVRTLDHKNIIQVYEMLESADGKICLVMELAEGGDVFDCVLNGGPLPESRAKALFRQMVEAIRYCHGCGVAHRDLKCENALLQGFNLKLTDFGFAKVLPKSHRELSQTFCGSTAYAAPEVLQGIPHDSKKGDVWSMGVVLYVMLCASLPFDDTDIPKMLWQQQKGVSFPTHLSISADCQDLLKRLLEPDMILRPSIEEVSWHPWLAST
Experimental: as §1

JAK3 = molecular target: T22, JAK3 (Homo sapiens, UniProt P52333)
T22 construct: purchased Reaction Biology Corporation (Kinase HotSpot)
T22 sequence (P52333 whole entry): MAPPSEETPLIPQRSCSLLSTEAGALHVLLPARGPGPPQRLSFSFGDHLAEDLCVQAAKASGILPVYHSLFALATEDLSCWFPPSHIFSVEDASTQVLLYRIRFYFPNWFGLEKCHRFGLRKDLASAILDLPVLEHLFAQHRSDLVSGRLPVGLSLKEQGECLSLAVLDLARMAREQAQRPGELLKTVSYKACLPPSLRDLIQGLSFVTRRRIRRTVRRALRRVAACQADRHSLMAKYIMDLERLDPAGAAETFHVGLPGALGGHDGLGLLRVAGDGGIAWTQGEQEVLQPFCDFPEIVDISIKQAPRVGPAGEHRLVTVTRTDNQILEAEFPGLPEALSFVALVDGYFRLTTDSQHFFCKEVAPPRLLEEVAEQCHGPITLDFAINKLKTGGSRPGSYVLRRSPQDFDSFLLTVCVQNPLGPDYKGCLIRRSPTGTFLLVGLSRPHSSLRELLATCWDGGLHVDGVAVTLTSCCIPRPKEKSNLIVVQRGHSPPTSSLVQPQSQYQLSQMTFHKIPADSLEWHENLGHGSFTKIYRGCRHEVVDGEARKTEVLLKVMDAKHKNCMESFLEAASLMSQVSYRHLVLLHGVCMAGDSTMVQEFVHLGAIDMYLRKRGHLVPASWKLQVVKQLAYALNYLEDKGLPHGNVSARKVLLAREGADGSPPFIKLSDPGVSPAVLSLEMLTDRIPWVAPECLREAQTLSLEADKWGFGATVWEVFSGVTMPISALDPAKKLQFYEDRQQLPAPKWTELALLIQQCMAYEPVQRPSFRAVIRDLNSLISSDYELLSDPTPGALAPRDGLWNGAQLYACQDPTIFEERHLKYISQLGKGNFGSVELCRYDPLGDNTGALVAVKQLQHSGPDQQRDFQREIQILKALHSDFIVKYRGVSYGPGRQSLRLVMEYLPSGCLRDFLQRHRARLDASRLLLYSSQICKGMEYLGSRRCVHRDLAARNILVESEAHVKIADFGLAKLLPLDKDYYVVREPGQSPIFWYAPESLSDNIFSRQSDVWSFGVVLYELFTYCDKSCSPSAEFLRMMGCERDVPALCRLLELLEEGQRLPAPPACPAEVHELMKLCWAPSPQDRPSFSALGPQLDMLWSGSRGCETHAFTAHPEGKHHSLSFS
Experimental: as §1

PKCepsilon = molecular target: T23, PKCepsilon (Homo sapiens, UniProt Q02156)
T23 construct: purchased Reaction Biology Corporation (Kinase HotSpot)
Experimental: as §1

CDK3/cyclin E = molecular target: T24, CDK3/cyclin E (Homo sapiens, UniProt Q00526)
T24 construct: purchased Reaction Biology Corporation (Kinase HotSpot)
T24 sequence (Q00526 whole entry): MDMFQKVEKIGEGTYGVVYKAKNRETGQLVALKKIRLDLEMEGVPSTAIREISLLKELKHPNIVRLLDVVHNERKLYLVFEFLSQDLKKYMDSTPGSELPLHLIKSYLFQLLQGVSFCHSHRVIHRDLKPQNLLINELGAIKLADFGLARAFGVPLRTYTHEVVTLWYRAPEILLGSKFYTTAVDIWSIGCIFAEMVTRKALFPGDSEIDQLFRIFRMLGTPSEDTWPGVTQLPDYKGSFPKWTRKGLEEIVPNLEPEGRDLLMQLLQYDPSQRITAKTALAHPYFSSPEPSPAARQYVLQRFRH
T24 sequence (P24864 whole entry partner): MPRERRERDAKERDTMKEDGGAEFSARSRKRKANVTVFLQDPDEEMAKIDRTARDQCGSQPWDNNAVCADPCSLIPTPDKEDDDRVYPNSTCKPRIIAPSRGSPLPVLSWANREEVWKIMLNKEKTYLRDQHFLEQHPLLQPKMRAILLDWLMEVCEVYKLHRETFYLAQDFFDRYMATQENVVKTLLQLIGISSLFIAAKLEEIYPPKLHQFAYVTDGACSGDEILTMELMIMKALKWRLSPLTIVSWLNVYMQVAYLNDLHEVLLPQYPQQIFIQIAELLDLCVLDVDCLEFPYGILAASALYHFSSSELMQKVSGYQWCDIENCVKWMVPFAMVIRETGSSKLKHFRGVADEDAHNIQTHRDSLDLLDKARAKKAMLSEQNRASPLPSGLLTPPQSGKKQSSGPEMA
Experimental: as §1

EPHB4 = molecular target: T25, EPHB4 (Homo sapiens, UniProt P54760)
T25 construct: purchased Reaction Biology Corporation (Kinase HotSpot)
Experimental: as §1

TLK2 = molecular target: T26, TLK2 (Homo sapiens, UniProt Q86UE8)
T26 construct: purchased Reaction Biology Corporation (Kinase HotSpot)
Experimental: as §1

PKCg = molecular target: T27, PKCg (Homo sapiens, UniProt P05129)
T27 construct: purchased Reaction Biology Corporation (Kinase HotSpot)
Experimental: as §1

TRKC = molecular target: T28, TRKC (Homo sapiens, UniProt Q16288)
T28 construct: purchased Reaction Biology Corporation (contract assay)
T28 sequence (Q16288 32-839): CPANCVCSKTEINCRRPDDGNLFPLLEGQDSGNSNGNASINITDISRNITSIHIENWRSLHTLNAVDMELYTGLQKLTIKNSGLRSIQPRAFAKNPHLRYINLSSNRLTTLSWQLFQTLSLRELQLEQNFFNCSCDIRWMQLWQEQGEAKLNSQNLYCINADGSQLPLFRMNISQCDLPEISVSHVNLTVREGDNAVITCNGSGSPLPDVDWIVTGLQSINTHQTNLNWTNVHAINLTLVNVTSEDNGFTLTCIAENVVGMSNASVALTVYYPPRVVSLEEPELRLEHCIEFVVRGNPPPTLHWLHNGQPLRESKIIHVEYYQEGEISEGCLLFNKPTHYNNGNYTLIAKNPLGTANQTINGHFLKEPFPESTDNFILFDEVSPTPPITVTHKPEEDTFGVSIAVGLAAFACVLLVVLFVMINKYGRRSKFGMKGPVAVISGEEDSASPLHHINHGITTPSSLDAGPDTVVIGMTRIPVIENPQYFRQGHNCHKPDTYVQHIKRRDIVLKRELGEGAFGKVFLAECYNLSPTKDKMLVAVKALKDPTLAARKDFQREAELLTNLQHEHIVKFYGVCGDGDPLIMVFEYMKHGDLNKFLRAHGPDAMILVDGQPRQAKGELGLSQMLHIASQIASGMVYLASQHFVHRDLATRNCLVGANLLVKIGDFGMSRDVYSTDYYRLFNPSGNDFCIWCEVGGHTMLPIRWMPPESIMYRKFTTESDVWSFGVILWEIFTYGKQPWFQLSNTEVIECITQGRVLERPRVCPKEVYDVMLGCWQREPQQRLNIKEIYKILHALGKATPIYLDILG
Experimental: as §1

LIMK2 = molecular target: T29, LIMK2 (Homo sapiens, UniProt P53671)
T29 construct: purchased Reaction Biology Corporation (Kinase HotSpot)
Experimental: as §1

MST2/STK3 = molecular target: T30, MST2/STK3 (Homo sapiens, UniProt Q13188)
T30 construct: purchased Reaction Biology Corporation (Kinase HotSpot)
Experimental: as §1

Cc1cnc(N[C@H]2CC[C@H](N)CC2)nc1-c1cnc2ccc(-c3ccccc3)cn12 [CDDD11-8]
remaining activity at 1 µM (FES/FPS): 86.2%
remaining activity at 1 µM (MEKK3): 109%
remaining activity at 1 µM (c-MET): 103%
remaining activity at 1 µM (SGK3/SGKL): 115%
remaining activity at 1 µM (IKKe/IKBKE): 91.7%
remaining activity at 1 µM (STK33): 70.3%
remaining activity at 1 µM (CLK3): 85.9%
remaining activity at 1 µM (FYN): 63.2%
remaining activity at 1 µM (HIPK3): 125%
remaining activity at 1 µM (BMX/ETK): 71.2%
remaining activity at 1 µM (SRPK2): 95.3%
remaining activity at 1 µM (HPK1/MAP4K1): 35.4%
remaining activity at 1 µM (PBK/TOPK): 102%
remaining activity at 1 µM (CDC7/DBF4): 109%
remaining activity at 1 µM (SSTK/TSSK6): 79.1%
remaining activity at 1 µM (FGFR1): 96.8%
remaining activity at 1 µM (MYLK3): 99.7%
remaining activity at 1 µM (ALK5/TGFBR1): 93.9%
remaining activity at 1 µM (EPHB1): 88.1%
remaining activity at 1 µM (ERBB2/HER2): 101%
remaining activity at 1 µM (TSSK3/STK22C): 98.3%
remaining activity at 1 µM (JAK3): 48.5%
remaining activity at 1 µM (PKCepsilon): 54.7%
remaining activity at 1 µM (CDK3/cyclin E): 77.9%
remaining activity at 1 µM (EPHB4): 81%
remaining activity at 1 µM (TLK2): 97.8%
remaining activity at 1 µM (PKCg): 87.9%
remaining activity at 1 µM (TRKC): 1.95%
remaining activity at 1 µM (LIMK2): 93.8%
remaining activity at 1 µM (MST2/STK3): 15%
